Measured values: patent US11707440B2 (priority 2017, dated 2023)
Where two headings read alike, the source gives them in different places.

What was measured:
[1] = for Stock solution stability: stock solutions
Source text: This example provides an LC-MS/MS method for the determination of ketamine and norketamine in sodium heparin human plasma using ketamine-d4 and norketamine-d4 as the respective internal standards (IS).

[2] = test system: adult female Sprague Dawley rats, PCG/RSC; conditions: 3 hours after a single intraperitoneal injection (Jevtovic-Todorovic 2000); cited from earlier work
[3] = test system: NMDA receptor; conditions: cited from earlier work

## CNC1(c2ccccc2Cl)CCCCC1=O (racemic) [ketamine, reference compound]
[1]; freeze (−20° C.)/thaw (ice-water bath)
  QC sample freeze/thaw stability: 3 freeze (−20° C.)/thaw (ice-water bath) cycles
[1]; freeze (−20° C.)/thaw (room temperature)
  QC sample freeze/thaw stability: 3 freeze (−20° C.)/thaw (room temperature) cycles
[1]; human plasma, room temperature
  QC sample bench-top stability: 68.5 hours at room temp
[1]; human plasma, −20° C.
  QC sample long-term storage stability: 1552 days at −20 °C
[1]; room temperature
  Processed sample stability: 146.5 hours at room temperature
[1]; room temperature and ice-water bath (0-4° C.)
  Whole Blood Stability: 120 minutes at room temperature and in an ice-water bath
[1]; spike solutions, −20° C.
  Stock solution stability (spike solutions): 610 days at −20 °C for ketamine/norketamine spike solutions
[1]; room temperature under white light
  Stock solution stability: 6 h
[1]; −20° C.
  Stock solution stability: 15100 h
[2]
  ED50-value for the induction of neuronal vacuolation in the PCG/RSC: 47.5 mg/kg body weight

## (+)MK-801 maleate
[3]
  Potency of the (+)-enantiomer relative to the (−)-enantiomer: 7 times
